How the values were obtained:
[1] = target: T1, hAT2 (Homo sapiens, UniProt P50052); test: hAT2 receptor binding assay (SPA, [125I]-Sar1-Ile8-Angiotensin II); details: membrane of HEK-293 cells overexpressing hAT2; 0.1 nM 125I ligand
T1 construct: expressed in transfected cells; host or cells: HEK-293
T1 sequence (P50052 1-363): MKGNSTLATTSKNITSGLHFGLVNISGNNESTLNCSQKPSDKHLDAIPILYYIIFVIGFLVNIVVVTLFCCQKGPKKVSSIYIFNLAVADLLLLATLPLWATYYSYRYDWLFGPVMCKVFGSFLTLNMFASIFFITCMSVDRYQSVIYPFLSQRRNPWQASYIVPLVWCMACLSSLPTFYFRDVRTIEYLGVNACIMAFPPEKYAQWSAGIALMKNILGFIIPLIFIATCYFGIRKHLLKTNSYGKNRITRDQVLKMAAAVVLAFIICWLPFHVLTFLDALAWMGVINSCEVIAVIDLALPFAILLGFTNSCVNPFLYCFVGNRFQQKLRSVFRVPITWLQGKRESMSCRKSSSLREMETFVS
Method in brief: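 Membranes from HEK-293 cells overexpressing hAT2 were used at 1.25 μg/well with 250 μg/well SPA beads. Compounds were tested as 8-point 3-fold dilutions, with stocks diluted 250-fold into the reaction. [125I]-Sar1-Ile8-Angiotensin II was present at 0.1 nM final, incubated overnight at room temperature with shaking, then read by scintillation proximity.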

[2] = Plasma protein binding rate (PPB) test, equilibrium dialysis; format: in vitro ADME, Sprague-Dawley rats; details: Sprague-Dawley, rat, 37°C, read-out: Plasma Protein Binding (%) SD Rat Plasma (converted)
Experimental: In vitro protein binding rates of 0.2 μM, 2 μM, 10 μM of test compounds with Sprague-Dawley rats, beagle dogs, human plasma were determined by equilibrium dialysis.
The experiment will use a 96-well equilibrium dialysis plate (HTDialysis device) to determine the plasma protein binding rate of the to-be-tested compound and the control compounds.
Prior to the start of the experiment, the dialysis membrane was pretreated according to the instructions for use and the dialysis unit was assembled as required.
Blank plasma was taken from CD-1 mice, Sprague-Dawley rats, Beagle dogs, cynomolgus monkeys and humans (an anticoagulant is EDTA-K2, which is a commercial product purchased, or is collected and prepared by the Drug Evaluation Department of Wuxi AppTech, and is stored in a refrigerator below −60° C. before use). A certain volume of the to-be-tested compound or the control compound working solution was added to prepare plasma samples of the compound to be tested at a concentration of 0.2, 2, 10 μM and plasma samples of the control compound at a concentration of 2 μM (n=1). The organic phase content was ≤1%. First, a certain volume of a plasma sample containing the to-be-tested compound and the control compound was taken out into the sample receiving plate as a sample at zero time (T0 sample, n=3); secondly, a plasma sample containing the to-be-tested compound and the control compound was added to one side of the dialysis membrane (plasma end, n=3), and a certain volume of dialysis buffer (buffer end, n=3) was added to the other side of the dialysis membrane; then the dialysis plate was placed in a humidified incubator with 5% CO2 for incubation for 4 hours at 37±1° C.
After the incubation, a certain volume of the dialyzed buffer sample (F sample) and the dialyzed plasma sample (T sample) were transferred to the sample receiving plate, and all samples were subjected to protein precipitation for LC/MS/MS analysis. And the dissociation rate of the compound (% Unbound) was calculated by the following formula: % Unbound=100*[F]/[T], % Bound=100−% Unbound. Wherein, % Unbound is the dissociation rate of the compound; % Bound is the binding rate of the compound; [F] is the concentration of the compound at the buffer end of the dialysis plate; [T] is the concentration of the compound at the plasma end of the dialysis plate; and the experimental results are shown in Table 7.

COc1ccc2c(c1OCc1ccccc1)C[C@@H](C(=O)O)N(C(=O)[C@@H](OC1CCCC1)c1ccccc1)C2 [Compound 37]
IC50 [1]: 4.1 nM
fraction unbound at 4 h [2]: 0.001

COc1ccc2c(c1OCc1ccccc1)C[C@@H](C(=O)O)N(C(=O)C(c1ccccc1)c1ccccc1)C2 [EMA-401, reference compound]
fraction unbound at 4 h [2]: 0.001

COc1ccc2c(c1OCc1ccccc1)C[C@@H](C(=O)O)N(C(=O)[C@@H](OC1(C)CCCC1)c1ccccc1)C2 [Compound 57]
IC50 [1]: 5.8 nM
fraction unbound at 4 h [2]: 0.002

COc1ccc2c(c1OCc1ccccc1)C[C@@H](C(=O)O)N(C(=O)[C@@H](O[C@H]1CC[C@@H](O)CC1)c1ccccc1)C2 [Compound 63]
IC50 [1]: 10.3 nM
fraction unbound at 4 h [2]: 0.011

COc1ccc2c(c1OCc1ccccc1)C[C@@H](C(=O)O)N(C(=O)[C@@H](OC1CC(F)(F)C1)c1ccccc1)C2 [Compound 51]
IC50 [1]: 3.2 nM
fraction unbound at 4 h [2]: 0.055

O=C(O)[C@@H]1Cc2c(ccc(Cl)c2OCc2ccccc2)CN1C(=O)[C@@H](OC1CCCC1)c1ccccc1 [Compound 107]
IC50 [1]: 13.2 nM

Source: patent US11021445B2, “Carboxylic acid derivative as AT2R receptor antagonist” (SHANDONG DANHONG PHARMACEUTICAL CO., LTD., priority 2017, dated 2021)
